In the NIST ThermoML archive (doi:10.1021/je900124n):
Values joined by “and” are separate entries in the source; they are usually repeats but may differ in a detail not shown here. Equal entries are not always repeated. Numbers after ± are expanded uncertainties.

Conditions: Fluid (supercritical or subcritical phases), Buoyancy - hydrostatic balance with magnetic suspension - two sinkers

CCC [propane]
Conditions | mass density
370.82 K, 4316.6 kPa | 196.656 ± 1.1 kg/m3 and 196.671 ± 1.1 kg/m3
370.82 K, 4316.7 kPa | 196.709 ± 1.1 kg/m3 and 196.642 ± 1.1 kg/m3
370.82 K, 4316.8 kPa | 196.799 ± 1.1 kg/m3
370.83 K, 4238.2 kPa | 146.891 ± 1.2 kg/m3 and 146.895 ± 1.2 kg/m3 and 146.889 ± 1.2 kg/m3
370.83 K, 4238.3 kPa | 146.899 ± 1.2 kg/m3 and 146.89 ± 1.2 kg/m3 and 146.892 ± 1.2 kg/m3
370.83 K, 4316.8 kPa | 196.721 ± 1.1 kg/m3 and 196.767 ± 1.1 kg/m3 and 196.684 ± 1.1 kg/m3
370.83 K, 4323.4 kPa | 219.805 ± 0.99 kg/m3 [middle of 5 runs]
370.83 K, 4323.5 kPa | 219.874 ± 0.99 kg/m3 and 219.908 ± 0.99 kg/m3 and 219.975 ± 0.99 kg/m3
370.83 K, 4330.9 kPa | 243.656 ± 1.2 kg/m3 [middle of 4 runs]
370.83 K, 4331 kPa | 243.626 ± 1.2 kg/m3 and 243.674 ± 1.2 kg/m3 and 243.648 ± 1.2 kg/m3
370.83 K, 4331.1 kPa | 243.671 ± 1.2 kg/m3
370.85 K, 4240.8 kPa | 147.314 ± 0.24 kg/m3
370.85 K, 4240.9 kPa | 147.324 ± 0.24 kg/m3
370.85 K, 4306.4 kPa | 177.862 ± 0.26 kg/m3
370.85 K, 4306.5 kPa | 177.914 ± 0.26 kg/m3 and 177.843 ± 0.26 kg/m3
370.85 K, 4306.6 kPa | 177.931 ± 0.26 kg/m3 and 177.874 ± 0.26 kg/m3
370.85 K, 4322.8 kPa | 208.978 ± 0.32 kg/m3 and 208.99 ± 0.32 kg/m3
370.85 K, 4322.9 kPa | 208.933 ± 0.32 kg/m3 and 209.016 ± 0.32 kg/m3
370.85 K, 4323 kPa | 209.074 ± 0.32 kg/m3
370.85 K, 4327.4 kPa | 226.65 ± 0.31 kg/m3
370.85 K, 4327.5 kPa | 226.647 ± 0.31 kg/m3
370.85 K, 4353.6 kPa | 265.164 ± 0.21 kg/m3
370.85 K, 4353.7 kPa | 265.36 ± 0.21 kg/m3 and 265.182 ± 0.21 kg/m3 and 265.138 ± 0.21 kg/m3
370.85 K, 4353.8 kPa | 265.176 ± 0.21 kg/m3 [middle of 4 runs]
370.86 K, 4327.6 kPa | 226.701 ± 0.31 kg/m3 and 226.673 ± 0.31 kg/m3
371.82 K, 4387.3 kPa | 196.837 ± 0.87 kg/m3 and 196.769 ± 0.87 kg/m3
371.82 K, 4416.6 kPa | 243.565 ± 0.91 kg/m3
371.83 K, 4293.5 kPa | 147.926 ± 0.75 kg/m3
371.83 K, 4293.6 kPa | 147.93 ± 0.75 kg/m3 and 147.934 ± 0.75 kg/m3 and 147.924 ± 0.74 kg/m3
371.83 K, 4293.7 kPa | 147.947 ± 0.75 kg/m3 and 147.93 ± 0.74 kg/m3
371.83 K, 4387.3 kPa | 196.784 ± 0.87 kg/m3 and 196.769 ± 0.87 kg/m3
371.83 K, 4387.4 kPa | 196.809 ± 0.87 kg/m3 [middle of 4 runs]
371.83 K, 4400.8 kPa | 219.56 ± 0.86 kg/m3
371.83 K, 4400.9 kPa | 219.574 ± 0.85 kg/m3 and 219.677 ± 0.85 kg/m3 and 219.642 ± 0.85 kg/m3
371.83 K, 4401 kPa | 219.681 ± 0.86 kg/m3 [middle of 4 runs]
371.83 K, 4416.6 kPa | 243.624 ± 0.91 kg/m3
371.83 K, 4416.7 kPa | 243.578 ± 0.91 kg/m3 and 243.586 ± 0.91 kg/m3
371.83 K, 4416.8 kPa | 243.575 ± 0.91 kg/m3 and 243.616 ± 0.91 kg/m3 and 243.58 ± 0.91 kg/m3
371.83 K, 4416.9 kPa | 243.605 ± 0.9 kg/m3
371.85 K, 4295.8 kPa | 148.252 ± 0.16 kg/m3
371.85 K, 4295.9 kPa | 148.276 ± 0.16 kg/m3 and 148.252 ± 0.16 kg/m3
371.85 K, 4370.3 kPa | 177.981 ± 0.24 kg/m3
371.85 K, 4370.4 kPa | 178.031 ± 0.24 kg/m3 and 177.991 ± 0.24 kg/m3 and 178.027 ± 0.24 kg/m3
371.85 K, 4370.5 kPa | 178.012 ± 0.24 kg/m3
371.85 K, 4397.1 kPa | 208.855 ± 0.19 kg/m3 and 208.907 ± 0.19 kg/m3
371.85 K, 4397.2 kPa | 208.865 ± 0.19 kg/m3 and 208.929 ± 0.19 kg/m3 and 208.907 ± 0.19 kg/m3
371.85 K, 4407.1 kPa | 226.926 ± 0.19 kg/m3
371.85 K, 4407.2 kPa | 226.521 ± 0.19 kg/m3 and 226.511 ± 0.19 kg/m3
371.85 K, 4450.2 kPa | 265.14 ± 0.25 kg/m3
371.85 K, 4450.3 kPa | 265.143 ± 0.25 kg/m3
371.85 K, 4450.4 kPa | 265.125 ± 0.25 kg/m3 and 265.134 ± 0.25 kg/m3 and 265.131 ± 0.25 kg/m3
371.86 K, 4407.3 kPa | 226.504 ± 0.19 kg/m3 and 226.483 ± 0.19 kg/m3
372 K, 4517.4 kPa | 281.197 ± 0.71 kg/m3
372 K, 4517.6 kPa | 281.196 ± 0.71 kg/m3 and 281.206 ± 0.71 kg/m3 and 281.197 ± 0.71 kg/m3
372 K, 4517.7 kPa | 281.2 ± 0.71 kg/m3 [middle of 4 runs]
375 K, 3980.2 kPa | 100.464 ± 0.14 kg/m3 and 100.463 ± 0.14 kg/m3
375 K, 3980.3 kPa | 100.468 ± 0.14 kg/m3 and 100.463 ± 0.14 kg/m3
